Experiments:
[1] = target: human FcγRIII (CD16a) (Homo sapiens, UniProt P08637); test: FcγRIII (CD16a) SPR (Method A); type: binding
Method: SPR experiments were performed to determine ka (M^−1s^−1), kd (s^−1), KD (nM) values (where measurable) of various bicyclic peptides to immobilized human FcγRIII proteins.
For analysis of peptide binding, a Biacore 3000 or T200 instrument was used with a CM5 chip (GE Healthcare). Streptavidin was immobilized on the chip using standard amine-coupling chemistry at 25° C. with HBS-N (10 mM HEPES, 0.15 M NaCl, pH 7.4) as the running buffer. Briefly, the carboxymethyl dextran surface was activated with a 7 min injection of a 1:1 ratio of 0.4 M 1-ethyl-3-(3-dimethylaminopropyl) carbodiimide hydrochloride (EDC)/0.1 M N-hydroxy succinimide (NHS) at a flow rate of 10 μl/min. For capture of streptavidin, the protein was diluted to 0.2 mg/ml in 10 mM sodium acetate (pH 4.5) and captured by injecting 120 μl of onto the activated chip surface. Residual activated groups were blocked with a 7 min injection of 1 M ethanolamine (pH 8.5) and biotinylated FcγRIII captured to a level of 400-1,400 RU. Buffer was changed to PBS/0.05% Tween 20 and a dilution series of the peptides was prepared in this buffer with a final DMSO concentration of 0.5%. […] The SPR analysis was run at 25° C. at a flow rate of 50 μl/min with 60 seconds association and dissociation between 60 and 200 seconds. Data were corrected for DMSO excluded volume effects. […]

[2] = test system: human CD16a V176 variant; test: IgG competition assay (AlphaScreen), V variant; type: binding; details: N-terminally biotinylated CD16a V176 10 nM, mouse IgG2a acceptor beads
[3] = test system: CD56- CD3+ (T-cell population) from human PBMCs; test: Flow cytometry binding to PBMCs, CD56-/CD3+ (T-cell) population; type: cell-based; details: FIG. 2B
Method: (§1) The affinity of NKp46 dimeric bicyclic peptides conjugated to Alexa Fluor® 488 to primary healthy peripheral blood mononuclear cells (PBMCs) was evaluated using a flow cytometry assay.
(§2) On the day of the experiment, medium was prepared by supplementing RPMI-1640 (Gibco™ 11875-093; with L-glutamine) with 10% heat-inactivated fetal bovine serum (FBS; Corning® 35-011-CV), 10 mM HEPES (Gibco™ 15-630-080), and 1% Penicillin Streptomycin (Corning™ 30-002-Cl), herein referred to as working medium. Previously isolated human peripheral blood mononuclear cells (PBMCs), from whole blood, were quick thawed in a water bath and washed once at 500 rpm for 5 minutes in 10 mL of prewarmed working medium. […]
(§3) Preparation of samples for flow cytometry: Zombie Aqua™ Fixable Viability Dye (BioLegend® 423102) was prepared as a 1:1000 dilution in PBS and 100 μL of viability dye was added to each well and incubated in the dark at 4° C. for 30 minutes. […] Cells were resuspended in 200 μL of stain buffer and kept at 4° C. in the dark until read by BD FACSCelesta™ flow cytometer.
(§4) Flow cytometry results were analyzed in FlowJo™ software with a gating strategy to evaluate the lymphocyte population then exclude debris, gate on single and live cells only, and determining the geometric mean of the Alexa Fluor® 488 in the CD3+ and CD3−/CD56+ populations. […]

[4] = test system: CD56+ (NK cells) from human PBMCs; test: Flow cytometry binding to PBMCs, CD56+ (NK cell) population; type: cell-based; details: FIG. 2A
Method: as §1, §2, §3, §4

Sequence of human FcγRIII (CD16a) (P08637 17-254): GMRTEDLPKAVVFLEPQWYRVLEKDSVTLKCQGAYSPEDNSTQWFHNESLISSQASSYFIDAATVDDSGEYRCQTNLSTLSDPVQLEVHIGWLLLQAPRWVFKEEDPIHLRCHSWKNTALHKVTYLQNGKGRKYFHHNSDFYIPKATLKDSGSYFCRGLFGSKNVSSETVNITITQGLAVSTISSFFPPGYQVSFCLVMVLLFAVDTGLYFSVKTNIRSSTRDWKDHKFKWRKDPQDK

Compound	Kd [1] [nM]	IC50 [2] [nM]	binding to CD56-/CD3+ (T-cell) population of PBMCs (in words) [3]	binding to CD56+ (NK cell) population of PBMCs (in words) [4]
C#CCCC(=O)NCCCC[C@H](NC(=O)[C@H](C)NC(=O)[C@@H]1CSCc2nc3nc(n2)CSC[C@H](NC(=O)[C@@H]2CCCN2C(=O)CNC(=O)[C@H](CC(C)C)NC(=O)[C@H](CCC(=O)O)NC(=O)[C@H](CCC(=O)O)NC(=O)[C@H](CC(C)C)NC(=O)CNC(=O)[C@H](C(C)C)NC(=O)[C@@H](NC(=O)[C@H](C)N)CSC3)C(=O)N[C@@H](CO)C(=O)N[C@@H](CC(=O)O)C(=O)N[C@@H](CC(C)C)C(=O)N1)C(N)=O [BCY13886, A-(SEQ ID NO: 62)-A-[K(PYA)]]	2200	3190		
BCY15663: AF488 NKp46 homodimer of BCY15452, C-term D-Lys(PYA), linker N-(amine-PEG2)-N-bis(PEG3-azide) (ACYLPDYLCGDEYCAK; not fully specified; D-residues)			binding to NK cells only	dose-dependent binding
